Assay: Metabolic stability in rat liver microsomes
Type: in vitro ADME
Protocol: page 15: SUPPORTING INFORMATION 3. Molecular Modeling A structure of PHD2 in complex with Fe and a 2OG competing inhibitor (PDB ID: 4KBZ) was obtained from PDB website. The structure files of protein and compounds for docking were prepared using the Discovery Studio (DS) 2020 software. A water molecule HOH624, conserved in the active binding site of PHD2, was retained during the docking. Residues of PHD2 around the native ligand […] Subsequently, the ligand was removed; the Fe (II) was retained during the docking. Compounds were docked into the binding sites using GOLD 5.1. Docking procedures were performed using the default setting with 100 genetic algorithm (GA) runs of ligands. […] The samples were centrifuged at 5000 rpm f or 10 min; the supernatants were then analyzed by HPLC. […] Subsequently, these samples were analyzed for reticulocytes in the center for new drug safety evaluation and research of China Pharmaceutical University (ADVIA 2120 hematology system). 5.2 In vivo EPO increased assay Plasma EPO was evaluated using the erythropoietin quantikine ELISA kit for mice (MEP00B). […] Plasma was collected by centrifugation at 3000 rpm, these plasmas were detected by E PO ELISA. […] The hemoglobin of samples was analyzed in the center for new drug safety evaluation and research at China Pharmaceutical University (ADVIA 2120 hematology system). […]

## O=C(N/N=C/c1cccc(O)c1Cl)c1cnc(-c2cccnn2)[nH]c1=O [compound 17]
After 50 min, 1 μM, 0.5 mg/mL
  compound present (remaining) in liver microsomes: > 80%
pH 7.4, read-out: t1/2 in liver microsomes
  half-life at 1 μM: > 1.67 h

Reference: article PMC9827864, “In Situ Inhibitor Synthesis and Screening by Fluorescence Polarization: An Efficient Approach for Accelerating Drug Discovery” (Angewandte Chemie (International Ed. in English), 2022)
